This is an account of results in patent US20250092064A1, “BENZOTRIAZOLE COMPOUND” (DAIICHI SANKYO COMPANY, LIMITED, priority 2022, published 2025).

For assay [1], the target named is binding between Nrf2 and Keap1 (Homo sapiens (Human), UniProt Q14145). The experiment in a line: FP assay (in vitro): inhibition of Nrf2-Keap1 binding by fluorescence polarization. Particulars: GST-fused human Keap1 (325-642) 20 nM, FITC-labeled Nrf2 peptide 10 nM, 2 hr at room temperature. (In general: Fluorescence polarisation rises when a labelled molecule tumbles more slowly, as on binding a larger partner.)
Chain of binding between Nrf2 and Keap1 (Q14145 325-624 limits assumed): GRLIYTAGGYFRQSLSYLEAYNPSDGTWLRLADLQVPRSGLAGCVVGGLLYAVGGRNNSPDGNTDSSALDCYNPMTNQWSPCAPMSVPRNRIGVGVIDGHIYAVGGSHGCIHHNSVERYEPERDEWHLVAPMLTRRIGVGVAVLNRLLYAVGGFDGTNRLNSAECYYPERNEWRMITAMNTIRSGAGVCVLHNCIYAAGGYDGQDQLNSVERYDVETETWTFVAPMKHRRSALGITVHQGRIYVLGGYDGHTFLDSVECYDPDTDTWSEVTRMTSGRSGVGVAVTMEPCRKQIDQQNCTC

In assay [2] the test system is NQO1 activity in Hepa1c1c7 cells. The assay is described as follows: NAD(P)H: quinone oxidoreductase-1 (NQO1) enzyme induction assay (in vitro). In kind it is cell-based, mouse. The conditions noted are these: Mus musculus, Hepa-1c1c7, NQO1 activity with 400 nM test compound as a ratio from the base without compound, about 48 hr. The procedure, abridged:
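Mouse Hepa1c1c7 hepatoma cells treated 48 hr with 400 nM compound (final). NQO1 activity in lysates read by absorbance at 610 nm; value is background-subtracted activity ratio versus untreated cells.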

A value given as a limit tells only on which side of the number the result lay.

Broadly, the IC50 is the concentration that gives 50% inhibition. A high value points to lower potency. As a reminder, the fold induction is the ratio of treated to control signal. In assay [1], `CC[C@@H]1CN(Cc2cc([C@H](CC(=O)O)c3cc(OC(F)F)c4c(nnn4C)c3C)cc3ccsc23)S(=O)(=O)c2cc(Cl)cnc2O1` [Example 108, (3S)-3-(7-{[(4R)-8-Chloro-4-ethyl-1,1-dioxido-3,4-dihydro-2H-pyrido[2,3-b][1,4,5]oxathiazepin-2-yl]methyl}-1-benzothiophen-5-yl)-3-[7-(difluoromethoxy)-1,4-dimethyl-1H-benzotriazol-5-yl]propanoic acid] displayed a 50% inhibitory concentration (IC50) of 30 to 100 nM. For the same compound, the fold induction at 0.4 µM in assay [2] is more than 5.

With `CCOc1ccc2c(n1)O[C@H](CC)CN(Cc1cc(C(CC(=O)O)c3ccc4c(nnn4C)c3C)cc3ccsc13)S2(=O)=O` (stereo partly drawn) [Example 19, 3-(1,4-Dimethyl-1H-benzotriazol-5-yl)-3-(7-{[(4R)-7-ethoxy-4-ethyl-1,1-dioxido-3,4-dihydro-2H-pyrido[2,3-b][1,4,5]oxathiazepin-2-yl]methyl}-1-benzothiophen-5-yl)propanoic acid], the 50% inhibitory concentration (IC50) in assay [1] was in the range of 10 to 30 nM. In addition, in assay [2], the fold induction at 0.4 µM was more than 5.

Take `CC[C@@H]1CN(Cc2cc([C@@H](c3ccc4c(nnn4C)c3C)C(C)(C)C(=O)O)cc3c2CCC3)[C@@H](C)c2ncccc2O1` [Example 89, (3S)-3-(1,4-Dimethyl-1H-benzotriazol-5-yl)-3-(7-{[(2R,5S)-2-ethyl-5-methyl-2,3-dihydropyrido[2,3-f][1,4]oxazepin-4(5H)-yl]methyl}-2,3-dihydro-1H-inden-5-yl)-2,2-dimethylpropanoic acid]: the IC50 in assay [1] is not above 10 nM. Moreover, the fold induction at 0.4 µM in assay [2] was more than 5.

In assay [1], `CC[C@@H]1CN(Cc2cc(C(CC(=O)O)c3ccc4c(nnn4C)c3C)cc3c2CCC3)S(=O)(=O)c2cccnc2O1` (stereo partly drawn) [Example 24, 3-(1,4-Dimethyl-1H-benzotriazol-5-yl)-3-(7-{[(4R)-4-ethyl-1,1-dioxido-3,4-dihydro-2H-pyrido[2,3-b][1,4,5]oxathiazepin-2-yl]methyl}-2,3-dihydro-1H-inden-5-yl)propanoic acid] came in with a concentration for half-maximal inhibition (IC50) of 10 to 30 nM. Also, in assay [2], the fold induction at 0.4 µM was more than 5.

Consider `CC[C@@H]1CN(Cc2cc([C@@H](CC(=O)O)c3cc(Cl)c4c(nnn4C)c3C)cc3ccsc23)[C@@H](C)c2ncccc2O1` [Example 70, (3R)-3-(7-Chloro-1,4-dimethyl-1H-benzotriazol-5-yl)-3-(7-{[(2R,5S)-2-ethyl-5-methyl-2,3-dihydropyrido[2,3-f][1,4]oxazepin-4(5H)-yl]methyl}-1-benzothiophen-5-yl)propanoic acid], for which the IC50 in assay [1] lay within 30 to 100 nM. For the same compound, the fold induction at 0.4 µM in assay [2] was 3 to 5.

With `CC[C@@H]1CN(Cc2cc([C@H](CC(=O)O)c3ccc4c(nnn4C)c3Cl)cc3ccsc23)[C@@H](C)c2ncccc2O1` [Example 74, (3S)-3-(4-Chloro-1-methyl-1H-benzotriazol-5-yl)-3-(7-{[(2R,5S)-2-ethyl-5-methyl-2,3-dihydropyrido[2,3-f][1,4]oxazepin-4(5H)-yl]methyl}-1-benzothiophen-5-yl)propanoic acid], the IC50 in assay [1] is not above 10 nM. In assay [2], the fold induction at 0.4 µM was more than 5.

Turning to `CC[C@@H]1CN(Cc2cc([C@@H](CC(=O)O)c3ccc4c(nnn4C)c3C)cc3ccsc23)[C@@H](C)c2ncccc2O1` [Example 63, (3R)-3-(1,4-Dimethyl-1H-benzotriazol-5-yl)-3-(7-{[(2R,5S)-2-ethyl-5-methyl-2,3-dihydropyrido[2,3-f][1,4]oxazepin-4(5H)-yl]methyl}-1-benzothiophen-5-yl)propanoic acid], the 50% inhibitory concentration (IC50) in assay [1] lay within 10 to 30 nM. In addition, in assay [2], the fold induction at 0.4 µM was more than 5.

Take `CC[C@@H]1CN(Cc2cc(C(CC(=O)O)c3ccc4c(nnn4CC(C)(C)O)c3C)cc3ccsc23)S(=O)(=O)c2cc(Cl)cnc2O1` (stereo partly drawn) [Example 56, 3-(7-{[(4R)-8-Chloro-4-ethyl-1,1-dioxido-3,4-dihydro-2H-pyrido[2,3-b][1,4,5]oxathiazepin-2-yl]methyl}-1-benzothiophen-5-yl)-3-[1-(2-hydroxy-2-methylpropyl)-4-methyl-1H-benzotriazol-5-yl]propanoic acid]: in assay [1], the IC50 lay in the range of 10 to 30 nM. In addition, the fold induction at 0.4 µM in assay [2] was more than 5.

With `CC[C@@H]1CN(Cc2cc([C@H](CC(=O)O)c3cc(OC(F)(F)F)c4c(nnn4C)c3C)cc3ccsc23)S(=O)(=O)c2cc(Cl)cnc2O1` [Example 46, (3S)-3-(7-{[(4R)-8-Chloro-4-ethyl-1,1-dioxido-3,4-dihydro-2H-pyrido[2,3-b][1,4,5]oxathiazepin-2-yl]methyl}-1-benzothiophen-5-yl)-3-[1,4-dimethyl-7-(trifluoromethoxy)-1H-benzotriazol-5-yl]propanoic acid], in assay [1], the IC50 fell in the range of 10 to 30 nM. Further, the fold induction at 0.4 µM in assay [2] was 3 to 5.

As for `CC[C@@H]1CN(Cc2cc(C(CC(=O)O)c3ccc4c(nnn4C)c3C)cc3c2OCC3)S(=O)(=O)c2cc(Cl)cnc2O1` (stereo partly drawn) [Example 91, 3-(7-{[(4R)-8-Chloro-4-ethyl-1,1-dioxido-3,4-dihydro-2H-pyrido[2,3-b][1,4,5]oxathiazepin-2-yl]methyl}-2,3-dihydro-1-benzofuran-5-yl)-3-(1,4-dimethyl-1H-benzotriazol-5-yl)propanoic acid], the IC50 in assay [1] lay in the range of 10 to 30 nM. The fold induction at 0.4 µM in assay [2] was more than 5.

In assay [1], `CC[C@@H]1CN(Cc2cc([C@H](CC(=O)O)c3cc(C)c4c(nnn4C)c3C)cc3c2CCC3)[C@@H](C)c2ncccc2O1` [Example 69, (3S)-3-(7-{[(2R,5S)-2-Ethyl-5-methyl-2,3-dihydropyrido[2,3-f][1,4]oxazepin-4(5H)-yl]methyl}-2,3-dihydro-1H-inden-5-yl)-3-(1,4,7-trimethyl-1H-benzotriazol-5-yl)propanoic acid] yielded an IC50 not above 10 nM. Further, in assay [2], the fold induction at 0.4 µM was in the range of 3 to 5.

Turning to `CC[C@@H]1CN(Cc2cc(C(CC(=O)O)c3ccc4c(nnn4C)c3C)cc3ccsc23)[C@@H](C)c2ncccc2O1` (stereo partly drawn) [Example 61, 3-(1,4-Dimethyl-1H-benzotriazol-5-yl)-3-(7-{[(2R,5S)-2-ethyl-5-methyl-2,3-dihydropyrido[2,3-f][1,4]oxazepin-4(5H)-yl]methyl}-1-benzothiophen-5-yl)propanoic acid], in assay [1], the half-maximal inhibitory concentration (IC50) lay in the range of 10 to 30 nM. For the same compound, the fold induction at 0.4 µM in assay [2] was more than 5.

For the compound `Cc1c([C@@H](CC(=O)O)c2cc(CN3C[C@@H](C)Oc4ccc(O)nc4[C@@H]3C)c3sccc3c2)ccc2c1nnn2C` [Example 80, (3S)-3-(1,4-Dimethyl-1H-benzotriazol-5-yl)-3-(7-{[(2R,5S)-7-hydroxy-2,5-dimethyl-2,3-dihydropyrido[2,3-f][1,4]oxazepin-4(5H)-yl]methyl}-1-benzothiophen-5-yl)propanoic acid], in assay [1], the IC50 lay in the range of 10 to 30 nM. The fold induction at 0.4 µM in assay [2] is more than 5.

Regarding `CC[C@@H]1CN(Cc2cc(C(CC(=O)O)c3cc(C4CC4)c4c(nnn4C)c3C)cc3ccoc23)[C@@H](C)c2ncccc2O1` (stereo partly drawn) [Example 109, 3-(7-Cyclopropyl-1,4-dimethyl-1H-benzotriazol-5-yl)-3-(7-{[(2R,5S)-2-ethyl-5-methyl-2,3-dihydropyrido[2,3-f][1,4]oxazepin-4(5H)-yl]methyl}-1-benzofuran-5-yl)propanoic acid], the IC50 in assay [1] fell in the range of 30 to 100 nM. Also, the fold induction at 0.4 µM in assay [2] was more than 5.

The compound `CC[C@@H]1CN(Cc2cc([C@@H](CC(=O)O)c3cc(C4CC4)c4c(nnn4C)c3C)cc3ccsc23)S(=O)(=O)c2cc(Cl)cnc2O1` [Example 37, (3R)-3-(7-{[(4R)-8-Chloro-4-ethyl-1,1-dioxido-3,4-dihydro-2H-pyrido[2,3-b][1,4,5]oxathiazepin-2-yl]methyl}-1-benzothiophen-5-yl)-3-(7-cyclopropyl-1,4-dimethyl-1H-benzotriazol-5-yl)propanoic acid] yielded an IC50 in assay [1] not above 10 nM. Besides, in assay [2], the fold induction at 0.4 µM is 3 to 5.

`CC[C@@H]1CN(Cc2cc(C(CC(=O)O)c3ccc4c(nnn4C)c3C)cc3c2CCC3)S(=O)(=O)c2ccc3ccccc3c2O1` (stereo partly drawn) [Example 26, 3-(1,4-Dimethyl-1H-benzotriazol-5-yl)-3-(7-{[(2R)-2-ethyl-5,5-dioxido-2,3-dihydro-4H-naphtho[1,2-b][1,4,5]oxathiazepin-4-yl]methyl}-2,3-dihydro-1H-inden-5-yl)propanoic acid]: in assay [1], the IC50 is 30 to 100 nM. Further, in assay [2], the fold induction at 0.4 µM was more than 5.

As for `CC[C@@H]1CN(Cc2cc([C@@H](c3ccc4c(nnn4C)c3C)C(C)(C)C(=O)O)cc3c2CCC3)S(=O)(=O)c2cc(Cl)cnc2O1` [Example 38, (3S)-3-(7-{[(4R)-8-Chloro-4-ethyl-1,1-dioxido-3,4-dihydro-2H-pyrido[2,3-b][1,4,5]oxathiazepin-2-yl]methyl}-2,3-dihydro-1H-inden-5-yl)-3-(1,4-dimethyl-1H-benzotriazol-5-yl)-2,2-dimethylpropanoic acid], the half-inhibitory concentration (IC50) in assay [1] is not above 10 nM. Further, in assay [2], the fold induction at 0.4 µM is more than 5.

On to `CC[C@@H]1CN(Cc2cc([C@H](CC(=O)O)c3cc(C)c4c(nnn4C)c3C)cc3ccsc23)[C@@H](C)c2ncccc2O1` [Example 68, (3S)-3-(7-{[(2R,5S)-2-Ethyl-5-methyl-2,3-dihydropyrido[2,3-f][1,4]oxazepin-4(5H)-yl]methyl}-1-benzothiophen-5-yl)-3-(1,4,7-trimethyl-1H-benzotriazol-5-yl)propanoic acid], for which the IC50 in assay [1] was not above 10 nM. The fold induction at 0.4 µM in assay [2] was more than 5.

Consider `CC[C@@H]1CN(Cc2cc(C(CC(=O)O)c3cc(C4CC4)c4c(nnn4C)c3C)cc3[nH]ccc23)[C@@H](C)c2ncccc2O1` (stereo partly drawn) [Example 104, 3-(7-Cyclopropyl-1,4-dimethyl-1H-benzotriazol-5-yl)-3-(4-{[(2R,5S)-2-ethyl-5-methyl-2,3-dihydropyrido[2,3-f][1,4]oxazepin-4(5H)-yl]methyl}-1H-indol-6-yl)propanoic acid], for which, in assay [1], the half-maximal inhibitory concentration (IC50) was in the range of 10 to 30 nM. For the same compound, the fold induction at 0.4 µM in assay [2] is more than 5.
